Results reported in patent US20240376126A1, “PRMT5 INHIBITOR AND THE USE THEREOF” (CYTOSINLAB THERAPEUTICS CO., LTD., priority 2022, published 2024).
Like-named read-outs stand apart in the source and are kept apart here.

Columns and labels:
[1] = test system: HCT116 MTAP WT cells; assay: Proliferation inhibition of HCT116 cells in vitro (CellTiter Glo, 6 days); type: cell-based; conditions: Homo sapiens, HCT-116, 144 h, read-out: Cell proliferation inhibition rate HCT116 MTAP WT IC50 (nm)
From the text: (§1) Biological Test Example 2 Proliferation Inhibition of HCT116 and HCT116 MTAP-KO Cells In Vitro
(§2) HCT116 cell line was purchased from the Chinese Academy of Sciences Cell Bank, and the MTAP gene was knocked out by CRISPR/Cas9 technology to obtain HCT116-MTAP-KO cell line.
(§3) McCoy's 5A medium (Gibco, catalog No. 16600082), fetal bovine serum (Gibco, catalog No. 10099141C), penicillin-streptomycin double antibody (Gibco, catalog No. 15140122), pancreatic enzyme (Gibco, catalog No. 25200056), CellTiter Glo assay kit (Promega, catalog No. G7572), 384-well transparent flat-bottomed black walled cell culture plate (Corning, catalog No. 3764), ultra micro sampler (Tecan, catalog No. D300e), Multimode reader (Biotek, catalog No. SynergyHTX)
(§4) • 1. Cell culture: HCT116 and HCT116-MTAP-KO cells were cultured in McCoy'5A medium+10% fetal bovine serum+1% penicillin-streptomycin double antibody; to ensure that they were always in the logarithmic growth phase and the cell viability greater than 95%. • 2. Compound concentration gradient preparation: The compound to be tested was added to a 384-well plate using an ultra micro sampler, starting from 30 μM (HCT116 cells) or 3 μM (HCT116-MTAP-KO cells), and diluted with DMSO at 3 times for a total of 9 concentrations and set up three duplicate wells. • 3. Treatment of cells with compounds: Trypsin-digested HCT116 or HCT116-MTAP-KO cell suspension was added to the 384-well plates spotted with the compounds to be tested at 40 μL per well, i.e., 100 cells per well, and the final concentration of DMSO was 0.4%. The cell culture plate was incubated at 37° C. in a 5% CO2 incubator for 6 days. • 4. Detection: 20 μL of CellTiter Glo reagent was added to each well of the cell culture plate and incubated at room temperature for 30 minutes. A multimode reader was used to detect the luminescence signal at […]. • 5. Data analysis:
(§5) The data was fitted with GraphPad Prism 8.0 software using a four parameter inhibitor-reaction model to obtain the […] (half inhibitory concentration) of the test compounds.
(§6) The first column represents cell proliferation inhibition rate HCT116 MTAP WT IC50 (nm), and the second column represents cell proliferation inhibition rate HCT116-MTAP null IC50 (nm): […]

[2] = test system: HCT116-MTAP-KO (MTAP null) cells; assay: Proliferation inhibition of HCT116 MTAP-KO cells in vitro (CellTiter Glo, 6 days); type: cell-based; conditions: 144 h, read-out: Cell proliferation inhibition rate HCT116-MTAP null IC50 (nm)
From the text: as §1, §2, §3, §4, §5, §6

Row | Compound | IC50 [1] [nM] | IC50 ([2]; HCT116-MTAP null) [nM] | IC50 [2] [nM]
1 | Cc1ncc2c(N)nc3cc(F)c(C(=O)N(Cc4cn5cc(CN6CCOCC6)ccc5n4)c4ccnn4C)cc3n12 [Example 243] | 1000 to 10000 | 100 to 1000 | 
2 | COCC(C1CC1)N(Cc1nc2cc(Br)ccc2s1)C(=O)c1ccc2nc(N)c(C)cc2c1 (stereo not shown) [Example 151] | 1000 to 10000 | 100 to 1000 | 
3 | CCN(Cc1cn2cc(C(F)(F)F)ccc2n1)C(=O)c1ccc2nc(N)c3c(c2c1)COC3C (stereo not shown) [Example 51] | 1000 to 10000 | 100 to 1000 | 
4 | Cc1ncc2c(N)nc3cc(F)c(C(=O)N(Cc4cn5cc(C(F)(F)F)ccc5n4)c4c(F)cnn4C)cc3n12 [Example 241, 4-amino-7-fluoro-N-(4-fluoro-2-methyl-pyrazol-3-yl)-1-methyl-N-[[6-(trifluoromethyl)imidazolo [1,2-a]pyridin-2-yl]methyl] imidazolo [1,5-a] quinoxalin-8-carboxamide] | 100 to 1000 | < 100 | 
5 | Nc1nc2cc(F)c(C(=O)N(Cc3cn4cc(C(F)(F)F)ccc4n3)C3CCOC3)cc2c2c1COC2 (stereo not shown) [Example 94] | 1000 to 10000 | 100 to 1000 | 
6 | CCN(Cc1cn2cc(C(F)(F)F)ccc2n1)C(=O)c1cc2c3c(c(N)nc2cc1F)COC3 [Example 85] | 1000 to 10000 | < 100 | 
7 | C[C@H]1OCc2c1c(N)nc1ccc(C(=O)N(Cc3cn4cc(C(F)(F)F)ccc4n3)c3cnn(C)c3)cc21 [Example 48] | 1000 to 10000 | 1000 to 10000 | 
8 | CC(C)CN(Cc1cn2cc(C(F)(F)F)ccc2n1)C(=O)c1cc2c(cc1F)nc(N)c1cnn(C)c12 [Example 36] | 100 to 1000 | < 100 | 
9 | CC(C)CN(Cc1cn2ccccc2n1)C(=O)c1ccc2nc(N)c3c(c2c1)CO[C@@H]3C [Example 54] | 1000 to 10000 | 100 to 1000 | 
10 | COCC(C1CC1)N(Cc1nc2ccccc2s1)C(=O)c1ccc2nc(N)c(C)cc2c1 (stereo not shown) [Example 146] | 1000 to 10000 |  | 100 to 1000
11 | CC(c1cn2ccccc2n1)N(C(=O)c1cc2c(cc1F)nc(N)c1cnn(C)c12)C12CC(C1)C2 (stereo not shown) [Example 31] | 1000 to 10000 | < 100 | 
12 | Cc1cc(NC(=O)C(=O)N(Cc2cn3cc(C(F)(F)F)ccc3n2)c2cn(C)nc2C)cnc1N [Example 108] | 1000 to 10000 | < 100 | 
13 | COCCN(Cc1cn2ccccc2n1)C(=O)c1cc2c(cc1C)nc(N)c1cnc(C)n12 [Example 166] | 100 to 1000 | < 100 | 
14 | Cc1nn(C)cc1N(Cc1cn2cc(C(F)(F)F)ccc2n1)C(=O)c1ccc2nc(N)c3c(c2c1)COC3C (stereo not shown) [Example 313, 4-Amino-N-(1,3-dimethylpyrazol-4-yl)-3-methyl-N-[[6-(trifluoromethyl)imidazolo[1,2-a]pyridin-2-yl]methyl]-1,3-dihydrofurano[3,4-c]quinolin-8-carboxamide] | 1000 to 10000 | < 100 | 
15 | COC1CCCC1N(Cc1cn2ccccc2n1)C(=O)c1cc2c(cc1F)nc(N)c1c(C)ncn12 (stereo not shown) [Example 278] | 1000 to 10000 | < 100 | 
16 | Cc1nn(C)cc1N(Cc1cc2ccc(C(F)(F)F)cn2n1)C(=O)c1ccc2nc(N)c3c(c2c1)COC3 [Example 126] | 1000 to 10000 | < 100 | 
17 | Cc1ncn2c1c(N)nc1cc(F)c(C(=O)N(Cc3cn4ccccc4n3)c3cnn(C)n3)cc12 [Example 262] | 1000 to 10000 | < 100 | 
18 | COCCOc1ccc2nc(CN(CC(C)C)C(=O)c3cc4c(cc3F)nc(N)c3cnn(C)c34)cn2c1 [Example 35] | 1000 to 10000 | < 100 | 
19 | Cc1ncc2c(N)nc3cc(F)c(C(=O)N4C(c5cc6ccccn6n5)COC[C@H]4C)cc3n12 (stereo partly shown) [Example 203] | 1000 to 10000 | < 100 | 
20 | CC1OCc2c1c(N)nc1ccc(C(=O)N(Cc3cn4c(C(F)(F)F)cccc4n3)c3cnn(C)c3)cc21 (stereo not shown) [Example 74] | 1000 to 10000 | 100 to 1000 | 
21 | CCN(C(=O)c1ccc2nc(N)c3c(c2c1)COC3C)C(C)c1cn2ccccc2n1 (stereo not shown) [Example 33] | 1000 to 10000 | 100 to 1000 | 
22 | Cc1nn(C)cc1N(Cc1nc2ccccn2c1F)C(=O)c1ccc2nc(N)c3c(c2c1)COC3 [Example 96] | 1000 to 10000 | < 100 | 
23 | Cc1ncn2c1c(N)nc1cc(F)c(C(=O)N(Cc3cn4cc(C(F)(F)F)ccc4n3)C3CCC3O)cc12 (stereo not shown) [Example 280] | 1000 to 10000 | 100 to 1000 | 
24 | CCN(Cc1nc2cc(C(F)(F)F)ccc2[nH]1)C(=O)c1cc2c(cc1F)nc(N)c1cnc(C)n12 [Example 140] | 1000 to 10000 | 100 to 1000 | 

Row | Compound | IC50 [1] [nM] | IC50 ([2]; HCT116-MTAP null) [nM] | IC50 [2] [nM]
25 | CCN(Cc1nc2ccccn2c1F)C(=O)c1cc2c(cc1F)nc(N)c1c(C)ncn12 [Example 209] | 1000 to 10000 | < 100 | 
26 | COCC(C)N(Cc1cn2cc(C(F)(F)F)ccc2n1)C(=O)c1cc2c(cc1F)nc(N)c1c(C)ncn12 (stereo not shown) [Example 285, 4-Amino-7-fluoro-N-(1-methoxypropan-2-yl)-3-methyl-N-((6-(trifluoromethyl)imidazolo[1,2-a]pyridin-2-yl)methyl)imidazo[1,5-a]quinoxalin-8-carboxamide] | 100 to 1000 | < 100 | 
27 | Cc1ncc2c(N)nc3cc(F)c(C(=O)N(Cc4cn5cc(C(F)(F)F)ccc5n4)c4ccnn4C)cc3n12 [Example 239] | 1000 to 10000 | < 100 | 
28 | CCN(Cc1nc2ccccc2[nH]1)C(=O)c1ccc2nc(N)c3c(c2c1)COC3C (stereo not shown) [Example 135] | 1000 to 10000 | 100 to 1000 | 
29 | Cn1cc(N(Cc2nc3ccc(C(F)(F)F)cn3c2F)C(=O)c2cc3c4c(c(N)nc3cc2F)COC4)cn1 [Example 84] | 1000 to 10000 | < 100 | 
30 | CC1OCc2c1c(N)nc1ccc(C(=O)N3[C@H](C)COC[C@@H]3c3cn4ccccc4n3)cc21 (stereo partly shown) [Example 64] | 1000 to 10000 | 100 to 1000 | 
31 | CCn1cc(N(Cc2nc3ccc(C(F)(F)F)cn3c2F)C(=O)c2ccc3nc(N)c4c(c3c2)COC4)c(C)n1 [Example 101] | 1000 to 10000 | < 100 | 
32 | Cc1cc2cc(C(=O)N(Cc3cc4ccccn4n3)C(C)c3cccc(F)n3)ccc2nc1N (stereo not shown) [Example 122] | 1000 to 10000 | < 100 | 
33 | CCN(Cc1cc2c(cn1)OCC2)C(=O)c1cc2c(cc1F)nc(N)c1cnc(C)n12 [Example 214] | 1000 to 10000 | 100 to 1000 | 
34 | Cn1cc(N(Cc2cn3ccccc3n2)C(=O)c2cc3c4c(c(N)nc3cc2F)COC4)cn1 [Example 82] | 1000 to 10000 | < 100 | 
35 | CCN(Cc1cn2ccccc2n1)C(=O)c1ccc2nc(N)c3c(c2c1)COC3C (stereo not shown) [Example 7] | 1000 to 10000 | < 100 | 
36 | CCN(C(=O)c1ccc2nc(N)c3c(cnn3C)c2c1)C(C)c1cn2ccccc2n1 (stereo not shown) [Example 15] | 1000 to 10000 | 100 to 1000 | 
37 | Cc1ncn2c1c(N)nc1cc(F)c(C(=O)N(Cc3cn4ccccc4n3)CC(C)C)cc12 [Example 277] | 1000 to 10000 | < 100 | 
38 | CC1OCc2c1c(N)nc1ccc(C(=O)N(Cc3cn4ccccc4n3)C(C)c3ncccn3)cc21 (stereo not shown) [Example 5] | 1000 to 10000 | < 100 | 
39 | CCN(C(=O)c1ccc2nc(N)c3c(cnn3C)c2c1)C(C)c1cc2ccccn2n1 (stereo not shown) [Example 117] | 1000 to 10000 | 100 to 1000 | 
40 | Cc1nc(C)n2c1c(N)nc1ccc(C(=O)N(C)C3COc4cc(-c5cnn(C(F)(F)F)c5)ccc43)cc12 (stereo not shown) [Example 167] | 1000 to 10000 | 100 to 1000 | 
41 | CCN(Cc1cc2ccccn2n1)C(=O)c1ccc2nc(N)c3c(cnn3C)c2c1 [Example 118] | 1000 to 10000 | 100 to 1000 | 
42 | Cn1ncc2c(N)nc3cc(F)c(C(=O)N(Cc4cn5ccccc5n4)C4COC4)cc3c21 [Example 9] | 1000 to 10000 | 100 to 1000 | 
43 | COCC(C)N(Cc1cn2cc(C(F)(F)F)ccc2n1)C(=O)c1ccc2nc(N)c3c(c2c1)COC3C (stereo not shown) [Example 44] | 1000 to 10000 | < 100 | 
44 | Cc1ncc2c(N)nc3cc(F)c(C(=O)N(Cc4cn5cc(C(F)(F)C(F)(F)F)ccc5n4)CC(C)C)cc3n12 [Example 182] | 100 to 1000 | < 100 | 
45 | Cc1ncc2c(N)nc3cc(Cl)c(C(=O)N(Cc4cn5cc(C(F)(F)F)ccc5n4)c4cnn(C)c4)cc3n12 [Example 210] | 1000 to 10000 | 100 to 1000 | 
46 | Cn1ncc2c(N)nc3cc(F)c(C(=O)N(Cc4cn5ccccc5n4)C45CC(C#N)(C4)C5)cc3c21 [Example 61] | 1000 to 10000 | < 100 | 
47 | Cn1cc(N(Cc2cn3cc(C(F)(F)F)ccc3n2)C(=O)c2ccc3nc(N)c4c(c3c2)COC4)cn1 [Example 68] | 1000 to 10000 | < 100 | 
